Key:
[1] = test system: USH2A gene (F region and R region of exon 13); test: Indel efficiency of USH2A guide RNA expression cassettes by next generation sequencing (NGS); assay type: cell-based, human; parameters: Indel efficiency (%) Cas12f1 ver3.0 / Indel efficiency (%) Cas12f1 ver4.0 / Indel efficiency (%) Cas12f1 ver4.1: concentration or dose not given beside the values; conditions: for Indel efficiency (%) Cas12f1 ver3.0: scaffold Cas12f1 ver3.0 (SEQ ID NO: 315); for Indel efficiency (%) Cas12f1 ver3.0 / Indel efficiency (%) Cas12f1 ver4.0 / Indel efficiency (%) Cas12f1 ver4.1: expression cassette, NGS; for Indel efficiency (%) Cas12f1 ver4.0: scaffold Cas12f1 ver4.0 (SEQ ID NO: 316); for Indel efficiency (%) Cas12f1 ver4.1: scaffold Cas12f1 ver4.1 (SEQ ID NO: 317)
Excerpt: A nucleotide sequence encoding the guide RNA designed based on the protospacer sequence selected in Example 2.1 was constructed into an expression cassette, which was immediately transfected to confirm indel efficiency by next generation sequencing (NGS) without the T7E1 assay. Here, the guide RNA was designed to include a U-rich tail sequence (for example, 5′-U4AU6-3′) at the 3′-end.
To confirm indel efficiency of the guide sequences of Cas12f1, a cassette containing the U6 promoter, scaffold sequence, guide sequence, and U-rich tail sequence (T4AT6) was amplified by PCR and used. The process was performed as follows.
The spacer was selected from the 20mer sequence followed by TTTA or TTTG, which are PAM of Cas12f1, and spacers whose sequences end with T were excluded. In addition, to minimize off-target effects, the spacers were designed using CRISPR RGEN TOOL by classifying them with less than 2 mismatches. In addition, the reverse complement sequence comprising a DR (direct repeat) and U-rich sequence was used as an R primer.
1% agarose gel was prepared, and the size marker and PCR products were added to the gel. Electrophoresis was performed to confirm the amplified size.
After confirming the amplified size, the gel was purified according to Experimental Example 9 to quantify the PCR products.
(§1) The day before transfection, HEK293T and ARPE19-HPV cells (80% confluency) cultured in 100 mm dishes were treated with trypsin to detach from the bottom of the dish. The detached cells were placed in 50 ml of pre-warmed medium (see Experimental Example 15 for its composition) and slowly dissolved with a pipette. 24-well plates were prepared according to the number of samples and repetitions, and 500 μl of cell suspension medium was added to each well (1/100 dilution). Then, incubation was performed overnight in a CO2 incubator at 37° C. until transfection.
(§2) The next day, when the cell confluency reached approximately 70% to 80%, 200 μl of the 500 μl medium per well was removed and the plates were placed in the incubator. 1.5 ml tubes were prepared according to the number of samples, and 200 μl of Opti-MEM was added to each tube. 1.5 μg of Cas12f1 DNA and 0.5 μg of gRNA (or a vector containing nucleic acids encoding Cas12f1 DNA and two gRNAs) were added to the tube containing Opti-MEM, and vortexed for 5 seconds (nucleic acid mixture). Then, the nucleic acid mixture and FuGENE HD were added at a ratio of 1:3, and reaction was allowed to occur at room temperature for 20 minutes (that is, in a case where the nucleic acid mixture was 2 μg, 6 μl of FuGENE HD was administered). The 24-well plate was taken out from the incubator, and 200 μl of the solution containing the nucleic acid mixture and FuGENE HD was gently added along the well wall. After shaking the plate sufficiently in an S shape, it was incubated in a CO2 incubator at 37° C. for 72 hours. After 72 hours, the cells were harvested and gDNA was extracted therefrom according to Experimental Example 8.
(§3) NGS analysis to confirm indel efficiency for the target was performed over a total of three PCR rounds.
The conditions for conducting the first PCR for each region are disclosed in Tables 20 to 29 below.

USH2A gene = test: Indel efficiency depending on length of the guide sequence; assay type: cell-based, human; conditions: highest value by guide length: F16 22mer, FA12 20mer, R19 24mer, R40 20mer; ver4.1 scaffold for F16, FA12, ver4.0 for R19, R40
Excerpt: Each guide sequence (F16, FA12, R19, R40) selected through Examples 2 and 3 was modified to have a guide sequence of 19- to 25-mer length based on the PAM adjacent to the protospacer sequence, and vectors expressing the same were produced, respectively, to compare the indel efficiency depending on a length of the guide sequence. As for the scaffold sequence, Cas12f1 ver4.1 was used for F16 and FA12, and Cas12f1 ver4.0 was used for R19 and R40, as selected in Example 2.2.
as §1, §2, §3

AAUAUGCCAUACAUAUUCC (expressed or natural sequence) [GUIDE-USH2A-FA20]
Indel efficiency (%) Cas12f1 ver3.0 [1]: 2.78%
Indel efficiency (%) Cas12f1 ver4.0 [1]: 0.58%
Indel efficiency (%) Cas12f1 ver4.1 [1]: 1.03%

ACAGUGAUGAAUGACUCACC (expressed or natural sequence) [GUIDE-USH2A-FA10]
Indel efficiency (%) Cas12f1 ver3.0 [1]: 4.41%
Indel efficiency (%) Cas12f1 ver4.0 [1]: 1.52%
Indel efficiency (%) Cas12f1 ver4.1 [1]: 1.89%

ACUGUGUAGGAGACAAAGGA (expressed or natural sequence) [GUIDE-USH2A-R36]
Indel efficiency (%) Cas12f1 ver4.0 [1]: 3.06%

AGAGUAAGAUUGGCCCCCUA (expressed or natural sequence) [GUIDE-USH2A-F05]
Indel efficiency (%) Cas12f1 ver3.0 [1]: 0.64%
Indel efficiency (%) Cas12f1 ver4.0 [1]: 1.48%
Indel efficiency (%) Cas12f1 ver4.1 [1]: 4.83%

AUUAUACCUUCGUGAAGCUG (expressed or natural sequence) [GUIDE-USH2A-F17]
Indel efficiency (%) Cas12f1 ver3.0 [1]: 0.02%
Indel efficiency (%) Cas12f1 ver4.0 [1]: 0.02%
Indel efficiency (%) Cas12f1 ver4.1 [1]: 0.18%

CUUAGAAAGAAGGAUGUAUA (expressed or natural sequence) [GUIDE-USH2A-R40]
Indel efficiency (%) Cas12f1 ver4.0 [1]: 21.35%
Indel efficiency (%) Cas12f1 ver4.1 [1]: 8.07%
indel efficiency (USH2A gene): 73.99%

CUUGCCAGAGAAGGAGUAGA (expressed or natural sequence) [GUIDE-USH2A-R19]
Indel efficiency (%) Cas12f1 ver3.0 [1]: 26.08%
Indel efficiency (%) Cas12f1 ver4.0 [1]: 27.24%
Indel efficiency (%) Cas12f1 ver4.1 [1]: 9.48%

CUUGCCAGAGAAGGAGUAGAACAA (expressed or natural sequence) [GUIDE-USH2A-R19-24 mer]
indel efficiency (USH2A gene): 83%

GCAUUGGUCAGUGUGUAAGA (expressed or natural sequence) [GUIDE-USH2A-R22]
Indel efficiency (%) Cas12f1 ver3.0 [1]: 6.32%
Indel efficiency (%) Cas12f1 ver4.0 [1]: 16.03%
Indel efficiency (%) Cas12f1 ver4.1 [1]: 15.79%

GGGUGAGAACAUUUAAGAUC (expressed or natural sequence) [GUIDE-USH2A-F15]
Indel efficiency (%) Cas12f1 ver3.0 [1]: 0.55%

UAAUGUGUACAUAUAUCAAA (expressed or natural sequence) [GUIDE-USH2A-F16]
Indel efficiency (%) Cas12f1 ver3.0 [1]: 4.19%
Indel efficiency (%) Cas12f1 ver4.0 [1]: 5.87%
Indel efficiency (%) Cas12f1 ver4.1 [1]: 10.78%

UAAUGUGUACAUAUAUCAAAAC (expressed or natural sequence) [GUIDE-USH2A-F16-22 mer]
indel efficiency (USH2A gene): 73%

UAAUUCUACCACCAGCCACA (expressed or natural sequence) [GUIDE-USH2A-R26]
Indel efficiency (%) Cas12f1 ver4.0 [1]: 6.41%

UAGACCCAUAUAACUCAGAG (expressed or natural sequence) [GUIDE-USH2A-R18]
Indel efficiency (%) Cas12f1 ver3.0 [1]: 0.46%

UAUAGAAAUACCUAGAAUUG (expressed or natural sequence) [GUIDE-USH2A-R10]
Indel efficiency (%) Cas12f1 ver3.0 [1]: 1.65%
Indel efficiency (%) Cas12f1 ver4.0 [1]: 1.20%

UCCAUAUAUAUACAUAUAUA (expressed or natural sequence) [GUIDE-USH2A-FA12]
Indel efficiency (%) Cas12f1 ver3.0 [1]: 4.61%
Indel efficiency (%) Cas12f1 ver4.1 [1]: 1.29%
indel efficiency (USH2A gene): 72.19%

UGUCUCGUCUAUCUUGAAUG (expressed or natural sequence) [GUIDE-USH2A-F02]
Indel efficiency (%) Cas12f1 ver3.0 [1]: 1%
Indel efficiency (%) Cas12f1 ver4.0 [1]: 0.23%
Indel efficiency (%) Cas12f1 ver4.1 [1]: 0.03%

UGUUCGUAUCAUCUGCAGUA (expressed or natural sequence) [GUIDE-USH2A-F03]
Indel efficiency (%) Cas12f1 ver3.0 [1]: 4.88%
Indel efficiency (%) Cas12f1 ver4.0 [1]: 5.89%
Indel efficiency (%) Cas12f1 ver4.1 [1]: 9.89%

UUUCUUUGCCUUGUAAUACC (expressed or natural sequence) [GUIDE-USH2A-F24]
Indel efficiency (%) Cas12f1 ver3.0 [1]: 0.04%
Indel efficiency (%) Cas12f1 ver4.0 [1]: 0.19%

B1: MS2/MS3/MS4: engineered sgRNA, SEQ ID NO: 316 (nucleic acid)
guide: ACCGCUUCACCAAAAGCUGUCCCUUAGGGGAUUAGAACUUGAGUGAAGGUGGGCUGCUUGCAUCAGCCUAAUGUCGAGAAGUGCUUUCUUCGGAAAGUAACCCUCGAAACAAAGAAAGGAAUGCAACNNNNNNNNNNNNNNNNNNNNUUUUAUUUUUU
modifications: Engineered sgRNA with modification of MS2/MS3/MS4; misc_feature 128..147 n is a, c, g or u
indel efficiency of cassette compared with Cas12f1 ver3.0 cassette ([1]; USH2A F and R region guide sequences): improved in most samples
indel efficiency, scaffold versions compared ([1]; target sequences located in the R region): higher indel efficiency than ver4.1

B2: MS2/MS3/MS4/MS5: engineered sgRNA, SEQ ID NO: 317 (nucleic acid)
guide: ACCGCUUCACUUAGAGUGAAGGUGGGCUGCUUGCAUCAGCCUAAUGUCGAGAAGUGCUUUCUUCGGAAAGUAACCCUCGAAACAAAGAAAGGAAUGCAACNNNNNNNNNNNNNNNNNNNNUUUUAUUUUUU
modifications: Engineered sgRNA with modification of MS2/MS3/MS4/MS5; misc_feature 99..118 n is a, c, g or u
indel efficiency, scaffold versions compared ([1]; target sequences located in the F region): higher indel efficiency than ver4.0

From patent US20250222136A1, “GENE EDITING SYSTEM FOR TREATING USHER SYNDROME” (GenKOre, Inc., priority 2022, published 2025)
